Biological target: T1, BRD4 BD1 WT (Homo sapiens, UniProt O60885)
T1 construct: Constructs used for mutagenesis, including wild-type BD1 (BD1 WT), BD1 with an E151A mutation (BD1 E151A), and wild-type BD2 (BD2 WT); GST (cleaved yes); made in house
Assay: Thermal shift assay (TSA/DSF), BD1 WT
Type: binding
Settings: eight increasing concentrations
Experimental: The melting temperatures shifts (ΔTm) were measured and the ΔTm curves as a function of compound-to-protein ratios were generated (Fig 2B–2C). […] As an additional control, the Tm of WT BD1 and E151A mutant in the absence of compound was also measured by TSA.
Plasmid construction and subsequent protein expression and purification of BRD4 proteins were performed using OverExpress C43(DE3) bacterial competent cells (Lucigen) as described in our previous studies. In brief, 12 L of bacterial cultures grown to OD600 between 0.6-0.8 were induced at 37°C for 4 h by 1 mM isopropyl […] (IPTG). Bacterial sonication supernatant in the lysis buffer (500 mM NaCl, 20 mM Tris-HCl pH 7.9 at 4°C, 20% glycerol, 1 mM EDTA, 0.2 mM DTT, and protease inhibitors) was incubated with glutathione (GSH) agarose beads (GOLDBIO, G-250–100) overnight with rotation at 4°C. The protein-bound GSH beads were washed three times with the lysis buffer and digested with human rhinovirus 3C protease (HRV-P3C; Thermal Fisher 88946) at 4°C for 4 h, according to the manufacture’s procedure, to remove GST tag from BD1/2 proteins. Untagged BRD4-BD1 and -BD2 were separated from HRV-P3C via passing through a HiTrap Q HP anion exchange chromatography column (GE Healthcare, GE17-1154-01) and eluted by a salt gradient from 100 mM to 1 M NaCl. […]

`O=C(Nc1ccc(C(F)(F)F)cc1)Nc1ccc(S(=O)(=O)N2CCC[C@H]2C(=O)Nc2ccccc2)cc1` [ZL0580] was tested, and the “Effect on stability of WT BD1 (TSA)” value was “dose-dependently increased the stability”.

From publication PMC12880750, “Mechanistic insights and in vivo HIV suppression by the BRD4-targeting small molecule ZL0580” (PLOS Pathogens, 2026)
